{
  "source": "patent US20230338348A1",
  "about": "“RENIN-ANGIOTENSIN SYSTEM (RAS) MODULATORS FOR TREATMENT OF VIRAL INFECTIONS, PHARMACEUTICAL COMPOSITIONS INCLUDING THE SAME, AND METHODS OF TREATING USING THE SAME” (Trocar Pharma Inc., priority 2020, published 2023)",
  "key": {"[1]": {"molecular_target": "T1, Human AT1 (Homo sapiens, UniProt P30556)", "T1 sequence (P30556 1-359)": "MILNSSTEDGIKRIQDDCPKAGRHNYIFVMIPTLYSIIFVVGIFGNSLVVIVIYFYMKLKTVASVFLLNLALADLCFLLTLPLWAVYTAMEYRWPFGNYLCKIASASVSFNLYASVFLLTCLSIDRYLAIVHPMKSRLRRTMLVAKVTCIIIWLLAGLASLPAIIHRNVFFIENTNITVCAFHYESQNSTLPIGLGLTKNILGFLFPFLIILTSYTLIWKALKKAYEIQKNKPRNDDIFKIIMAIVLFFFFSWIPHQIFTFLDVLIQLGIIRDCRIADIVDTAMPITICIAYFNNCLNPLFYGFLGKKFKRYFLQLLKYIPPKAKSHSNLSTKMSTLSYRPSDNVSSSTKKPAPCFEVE", "assay": "Angiotensin II AT1 receptor inhibition", "format": "binding", "settings": "Human AT1, at 1.0 × 10^−8M drug, N = 2"}, "[2]": {"molecular_target": "T2, AT2, angiotensin II (Homo sapiens, UniProt P50052)", "T2 sequence (P50052 1-363)": "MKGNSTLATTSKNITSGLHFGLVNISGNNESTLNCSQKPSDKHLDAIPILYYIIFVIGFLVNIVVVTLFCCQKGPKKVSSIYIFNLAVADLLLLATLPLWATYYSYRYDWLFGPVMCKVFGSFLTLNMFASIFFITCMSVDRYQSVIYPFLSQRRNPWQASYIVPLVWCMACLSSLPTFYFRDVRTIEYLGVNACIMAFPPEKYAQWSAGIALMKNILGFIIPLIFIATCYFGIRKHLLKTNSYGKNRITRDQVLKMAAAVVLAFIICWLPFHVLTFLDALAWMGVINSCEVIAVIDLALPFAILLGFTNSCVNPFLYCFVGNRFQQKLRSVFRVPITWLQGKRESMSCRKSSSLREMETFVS", "assay": "Angiotensin II AT2 receptor inhibition", "format": "binding", "settings": "at 1.0 × 10^−9M drug, N = 2"}, "[3]": {"tested_on": "Preglomerular vascular smooth muscle cells", "assay": "O2- generation in Ang II-stimulated preglomerular vascular smooth muscle cells", "format": "cell-based", "settings": "cells stimulated by 10^−6 M Ang II", "text": "Preglomerular vascular smooth muscle cells were stimulated by 10^−6 M Ang II to produce O2^−."}, "[4]": {"settings": "in vivo; cited from earlier work"}},
  "data": [
    {"smiles": "CCCc1nc2c(C)cc(-c3nc4ccccc4n3C)cc2n1Cc1ccc(-c2ccccc2C(=O)O)cc1", "note": "[Telmisartan]", "values": [
      {"measurement": "inhibition at 0.01 µM", "setting": "[1]", "value": 52.7, "unit": "%"},
      {"measurement": "inhibition at 0.001 µM", "setting": "[2]", "value": 6.37, "unit": "%"},
      {"measurement": "inhibition of O2− generation (antioxidant action)", "setting": "[3]", "value": "do not have antioxidant actions"},
      {"measurement": "half-life", "setting": "[4]", "value": 24, "unit": "h"}
    ]}
  ]
}
